Reference: patent US6207399A, “Methods of determining endogenous thrombin potential (ETP) and thrombin substrates for use in said methods” (Hemker; Hendrik Coenraad, priority 1995, dated 2001)
Like-named read-outs stand apart in the source and are kept apart here. Each block holds one compound with its values, some of them ahead of it. Square brackets hold non-standard residues; d marks the D form. Peptide text beside a SMILES is read from it. * marks the point of attachment. pNA = O=[N+]([O-])c1ccc(N*)cc1; Nle = CCCC[CH](N)C(=O)O; Pip = O=C(O)[CH]1CCCCN1; Boc = CC(C)(C)OC(=O)*; Bz = O=C(c1ccccc1)*; CH2Cl = ClC*

Legend:
[1] = Water solubility of the substrates; format: physicochemical
thrombin [2] = details: Serbio patent EP-B-0 280 610; cited from earlier work
Factor Xa [3] = details: Serbio patent EP-B-0 280 610; cited from earlier work
plasmin = details: Serbio patent EP-B-0 280 610; cited from earlier work
protein C = details: Serbio patent EP-B-0 280 610; cited from earlier work
thrombin [4] = target: T1, thrombin (Homo sapiens, UniProt P00734); details: Angliker et al; cited from earlier work
thrombin [5] = details: Svendsen et al; cited from earlier work
human α-thrombin [6] = target: T2, human α-thrombin (Homo sapiens, UniProt P00734); experiment: Kinetics of hydrolysis of substrates by human α-thrombin in buffer A at 37° C. (Example 2, Table 1); format: biochemical
T2 construct: Pure human α-thrombin; gift of Dr. T. Lindhout (University of Limburg, Maastricht)
Procedure: (§1) Kinetic parameters: The hydrolysis experiments were run in buffer A at 37° C. The liberation of p-nitroaniline was monitored at 405 nm in a dual wavelength (405-546 nm) spectrophotometer made in our workshop, using a personal computer for data recording. In a polystyrene microcuvette (total volume 500 μL), buffer A and substrate solution were added to obtain a final substrate concentration between 1 to 2000 μM. After 5 min of incubation at 37° C., enzyme solution was added to achieve a final concentration between 0.5 to 100 nM. The measurement was carried out at 37° C. in a thermostated cuvette-holder. The Michaelis constant (Km) and the catalytic constant (kcat) were obtained by measuring initial reaction velocities at different substrate concentrations. The data obtained were fitted by linear regression on the Michaelis-Menten equation.
(§2) Kinetic parameters: In a preliminary experiment, the substrate was hydrolyzed under the following conditions: enzyme concentration: 10 to 20 nM, substrate concentration: 200 μM in buffer A to get an impression of the initial velocity. […] The results are given in table 1 and 2 for thrombin and factor Xa respectively. The Km and kcat for each substrate were determined from the initial velocities measured for at least six substrate concentrations in the concentration range as given. The enzyme concentration used gives a good signal to noise ratio. The data given are obtained from one or two experiments. The data from table 1 and 2 were only used as the first selection criterion to get a rough impression of the hydrolysis behaviour. Notwithstanding the preliminary character of the measurement it was helpful in the design of the substrates of our interest.

factor Xa [7] = target: T3, factor Xa (Homo sapiens, UniProt P00742); experiment: Kinetics of hydrolysis of substrates by human factor Xa in buffer A at 37° C. (Example 2, Table 2); format: biochemical
T3 construct: human factor Xa samples; gift of Dr. T. Lindhout (University of Limburg, Maastricht)
T3 sequence (P00742 41-179 limits assumed): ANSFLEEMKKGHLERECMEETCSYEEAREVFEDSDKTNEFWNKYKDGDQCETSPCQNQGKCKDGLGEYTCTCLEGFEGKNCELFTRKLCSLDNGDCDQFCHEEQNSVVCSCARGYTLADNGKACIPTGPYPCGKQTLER
T3 sequence (P00742 235-488 limits assumed): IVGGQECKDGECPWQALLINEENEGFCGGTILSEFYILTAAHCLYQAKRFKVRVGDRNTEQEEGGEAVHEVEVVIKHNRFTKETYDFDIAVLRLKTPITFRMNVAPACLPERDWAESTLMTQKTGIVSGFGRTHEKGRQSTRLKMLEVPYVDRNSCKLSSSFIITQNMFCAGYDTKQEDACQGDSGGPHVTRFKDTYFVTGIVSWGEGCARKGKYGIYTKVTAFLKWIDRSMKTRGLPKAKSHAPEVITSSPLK
Procedure: as §1, §2

factor Xa [8] = target: T3, factor Xa; experiment: Kinetic parameters of hydrolysis of the substrates by factor Xa in buffer A at 37° C. (Example 4, Table 3); format: biochemical; details: buffer A, 37° C., 50 nM factor Xa
Summary of the method: (§3)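 p-Nitroaniline release followed at 405 nm in buffer A at 37 °C, with at least six substrate levels of 200–2000 μM. Thrombin at 0.5–50 nM, factor Xa at 50 nM; Km and kcat from initial velocities by linear regression on Michaelis-Menten.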

thrombin [9] = target: T1, thrombin; experiment: Kinetic parameters of hydrolysis of the substrates by thrombin in buffer A at 37° C. (Example 4, Table 3); format: biochemical; set-up: Pure human α-thrombin; gift of Dr. T. Lindhout (University of Limburg, Maastricht); details: buffer A, 37° C.
Summary of the method: as §3

human α-thrombin [10] = target: T2, human α-thrombin; details: from Hemker H.C. et al. (1993); cited from earlier work
factor Xa [11] = target: T3, factor Xa; details: entry marked ^a (Hemker et al. 1993, footnote of Table 1); cited from earlier work
factor Xa [12] = target: T3, factor Xa; details: SQ68 reference, same values as Table 2 entry 17; cited from earlier work
thrombin [13] = target: T1, thrombin; set-up: Pure human α-thrombin; gift of Dr. T. Lindhout (University of Limburg, Maastricht); details: SQ68 reference, same values as Table 1 entry 17 (from Hemker et al. 1993); cited from earlier work

- water solubility [1]: restricted water solubility
Compound: CCCC[C@H](NC(=O)[C@@H]1CCCN1C(=O)[C@H](N)Cc1ccccc1)C(=O)Nc1ccc([N+](=O)[O-])cc1.Cl [Substrate 7] (H-[dF]-Pro-[Nle]-pNA)

Compound: COC(=O)CC(=O)N1CCC[C@H]1C(=O)N[C@@H](CCCNC(=N)N)C(=O)Nc1ccc([N+](=O)[O-])cc1 [CH3 O--CO--CH2 --CO-L-Pro-L-Arg-pNA]
- rate of hydrolysis for thrombin (thrombin [2]): 0.68
- rate of hydrolysis for Factor Xa (Factor Xa [3]): 0.14
- rate of hydrolysis for plasmin (plasmin): 0.230
- rate of hydrolysis for protein C (protein C): 0.83

Compound: CC(=O)NCC(=O)N[C@H](C(=O)N[C@@H](CCCNC(=N)N)C(=O)CCl)C(C)C [Ac-Gly-Val-Arg-CH2 Cl] (Ac-Gly-Val-Arg-CH2Cl)
- ki value, times lower than that for D-Phe-Pro-Arg-CH2 Cl (thrombin [4]): 3×10^4

Compound: CC(C)[C@H](NC(=O)c1ccccc1)C(=O)N[C@@H](CCCNC(=N)N)C(=O)Nc1ccc([N+](=O)[O-])cc1 [benzoyl-Val-Arg-p-nitroanilide] (Bz-Val-Arg-pNA)
- factor by which poorer substrate for thrombin than Benzoyl-Phe-Val-Arg-p-nitroanilide (thrombin [5]): ≥ 100

- water solubility [1]: restricted water solubility
Compound: CCCCC(NC(=O)C1CCCCN1C(=O)C(N)Cc1ccccc1)C(=O)Nc1ccc([N+](=O)[O-])cc1.Cl (centres unmarked) [Substrate 6] (H-Phe-[Pip]-[Nle]-pNA; configuration not given here)

- Km (human α-thrombin [6]): 1640 µM
- kcat (human α-thrombin [6]): 16.54 s⁻¹
- kcat /Km (human α-thrombin [6]): 10100 M/s
- Km (factor Xa [7]): 2680 µM
- kcat (factor Xa [7]): 3.51 s⁻¹
- kcat /Km (factor Xa [7]): 1310 M/s
- Factor Xa kcat (factor Xa [8]): 2.84 s⁻¹
- Factor Xa kcat /Km (factor Xa [8]): 649 M/s
- Km (factor Xa [8]): 4380 µM
- Km (thrombin [9]): 3230 µM
- Thrombin kcat (thrombin [9]): 25.4 s⁻¹
- Thrombin kcat /Km (thrombin [9]): 7880 M/s
Compound: CC(C)[C@H](NC(=O)CN)C(=O)N[C@@H](CCCNC(=N)N)C(=O)Nc1ccc([N+](=O)[O-])cc1.Cl.Cl [2HCl.H-Gly-Val-Arg-pNA] (H-Gly-Val-Arg-pNA)

Compound: COC(=O)CC(=O)N1C[C@H](O)C[C@H]1C(=O)N[C@@H](CCCNC(=N)N)C(=O)Nc1ccc([N+](=O)[O-])cc1 [CH3 O--CO--CH2 --CO-L-4Hyp-L-Arg-pNA]
- rate of hydrolysis for thrombin (thrombin [2]): 0.61
- rate of hydrolysis for Factor Xa (Factor Xa [3]): 0.34
- rate of hydrolysis for plasmin (plasmin): 1.12
- rate of hydrolysis for protein C (protein C): 0.88

- water solubility [1]: restricted water solubility
Compound: Cl.N=C(N)NCCC[C@H](NC(=O)CNS(=O)(=O)c1ccc2ccccc2c1)C(=O)Nc1ccc([N+](=O)[O-])cc1 [Substrate 25]

Compound: COC(=O)CC(=O)NC(C)(C)C(=O)N[C@@H](CCCNC(=N)N)C(=O)Nc1ccc([N+](=O)[O-])cc1.Cl [MZ-Aib-Arg-pNA.HCl, malonyl-α-aminoisobutyryl-arginine p-nitroanilide methyl ester monohydrochloride]
- Km (human α-thrombin [10]): 830 µM
- kcat (human α-thrombin [10]): 0.46 s⁻¹
- kcat /Km (human α-thrombin [10]): 554 M/s
- Km (factor Xa [11]): 3940 µM
- kcat (factor Xa [11]): 2.9 s⁻¹
- kcat /Km (factor Xa [11]): 738 M/s
- Factor Xa kcat (factor Xa [12]): 2.9 s⁻¹
- Factor Xa kcat /Km (factor Xa [12]): 738 M/s
- Km (factor Xa [12]): 3940 µM
- rate of hydrolysis for thrombin (thrombin [2]): 0.04
- rate of hydrolysis for Factor Xa (Factor Xa [3]): 0.01
- rate of hydrolysis for plasmin (plasmin): 0.02
- rate of hydrolysis for protein C (protein C): 0.03
- Km (thrombin [13]): 830 µM
- Thrombin kcat (thrombin [13]): 0.46 s⁻¹
- Thrombin kcat /Km (thrombin [13]): 554 M/s

- Km (human α-thrombin [6]): 1010 µM
- kcat (human α-thrombin [6]): 14.4 s⁻¹
- kcat /Km (human α-thrombin [6]): 14300 M/s
- Km (factor Xa [7]): 2570 µM
- kcat (factor Xa [7]): 6.42 s⁻¹
- kcat /Km (factor Xa [7]): 2500 M/s
- Factor Xa kcat (factor Xa [8]): 10.1 s⁻¹
- Factor Xa kcat /Km (factor Xa [8]): 2470 M/s
- Km (factor Xa [8]): 4080 µM
- Km (thrombin [9]): 1010 µM
- Thrombin kcat (thrombin [9]): 14.4 s⁻¹
- Thrombin kcat /Km (thrombin [9]): 14300 M/s
Compound: COC(=O)CC(=O)N[C@H](C(=O)N[C@@H](CCCNC(=N)N)C(=O)Nc1ccc([N+](=O)[O-])cc1)C(C)C.Cl [MZ-Val-Arg-pNA.HCl]
- rate of hydrolysis for thrombin (thrombin [2]): 0.21
- rate of hydrolysis for Factor Xa (Factor Xa [3]): 0.03
- rate of hydrolysis for plasmin (plasmin): 0.08
- rate of hydrolysis for protein C (protein C): 0.12

Compound: CC(C)[C@H](NC(=O)[C@H](Cc1ccccc1)NC(=O)c1ccccc1)C(=O)N[C@@H](CCCNC(=N)N)C(=O)Nc1ccc([N+](=O)[O-])cc1 [Benzoyl-Phe-Val-Arg-p-nitroanilide] (Bz-Phe-Val-Arg-pNA)
- kcat /Km (thrombin [5]): 90×10^-7 [(NIH units/liter)s]^-1

Compound: CC(C)[C@H](NC(=O)[C@@H](N)Cc1ccccc1)C(=O)N[C@@H](CCCNC(=N)N)C(=O)Nc1ccc([N+](=O)[O-])cc1 [H-Phe-Val-Arg-p-nitroanilide] (H-Phe-Val-Arg-pNA)
- factor by which poorer substrate for thrombin than Benzoyl-Phe-Val-Arg-p-nitroanilide (thrombin [5]): ≥ 100

- Km (human α-thrombin [6]): 244 µM
- kcat (human α-thrombin [6]): 11.2 s⁻¹
- kcat /Km (human α-thrombin [6]): 45900 M/s
- Km (factor Xa [7]): 959 µM
- kcat (factor Xa [7]): 1.90 s⁻¹
- kcat /Km (factor Xa [7]): 1980 M/s
- Factor Xa kcat (factor Xa [8]): 3.51 s⁻¹
- Factor Xa kcat /Km (factor Xa [8]): 1310 M/s
- Km (factor Xa [8]): 2680 µM
- Km (thrombin [9]): 244 µM
- Thrombin kcat (thrombin [9]): 11.2 s⁻¹
- Thrombin kcat /Km (thrombin [9]): 45900 M/s
Compound: CC(C)[C@H](NC(=O)CNC(=O)OC(C)(C)C)C(=O)N[C@@H](CCCNC(=N)N)C(=O)Nc1ccc([N+](=O)[O-])cc1.Cl [Boc-Gly-Val-Arg-pNA.HCl] (Boc-Gly-Val-Arg-pNA)
